# Measured values: patent US20210267251A1, “COMPOSITIONS AND METHODS USING A NICOTINAMIDE ADENINE DINUCLEOTIDE (NAD+) PRECURSOR AND AT LEAST ONE KETONE OR KETONE PRECURSOR” (SOCIETE DES PRODUITS NESTLE S.A., priority 2018, published 2021)
# System: human iPSC-derived astrocytes
# Test: Oxygen consumption (mitochondrial respiration) in human iPSC-derived astrocytes, Seahorse XF96
# Type: cell-based
# Details: hiPSC-derived astrocytes; NR 0.5 mM for 24 hours; ketone bodies BHB (0.5 mM or 2 mM) or BHP for 1 h in KRBH 1 mM glucose; uncoupled with FCCP 1 μM; FIG. 6
# Protocol: Differentiated human iPSC astrocytes were obtained from Cellular Dynamics International (CDI, Madison, Wis., USA). The cells were thawed according to the manufacturer's instructions. iCell astrocytes were cultured in DMEM supplemented with 10% fetal calf serum and N2 complement. Oxygen consumption in human iPSC-derived astrocytes was measured in a Seahorse XF96 instrument (Seahorse Bioscience, North Billerica, Mass., USA). Astrocytes were seeded directly into Seahorse 96-well tissue culture plates (XF96 FluxPaks no. 102416-100; Seahorse Bioscience) at a density of 40,000 cells per well. Cells were incubated for 24 hours with 0.5 mM of Nicotinamide riboside chloride (NR) or fresh medium before experiment. Four days after seeding, the cells were washed twice in KRBH 1 mM glucose and incubated for 1 h with the ketone bodies BHB (racemic (D,L) BHB) or BHP (D BHP) at the concentration indicated. The cells were maintained at 37° C. during the experiment. Mitochondrial respiration rates were determined every 6 minutes. […] The oxygen consumption rate in hiPSC-derived astrocytes was measured as an indication of mitochondrial function, using a Seahorse instrument. Through addition of the uncoupling agent FCCP, uncoupled (=maximal) respiration was determined.
smiles,measurement,value
"NC(=O)c1ccc[n+]([C@@H]2O[C@H](CO)[C@@H](O)[C@H]2O)c1 [NR, Nicotinamide riboside chloride]","maximal (uncoupled) respiration, oxygen consumption rate",Neither ketone bodies alone nor NR treatment significantly increases maximal respiration
